Activity calls are given as the source filed them. No rule for the calls is given here.
Test system: rodent carcinogenicity bioassays, tumor incidence
Assay: CCRIS carcinogenicity studies
How it was run: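 Archive of carcinogenicity, mutagenicity, tumor promotion and tumor inhibition results drawn from journals, NCI reports and other sources, expert-reviewed; covers 1985-2011 and is no longer updated.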

Structure (SMILES): CCCCC(CC)CO (stereo not drawn)
- carcinogen call (Species: MOUSE, Strain/Sex: B6C3F1/FEMALE, Route: GAVAGE, Dose: 0, 50, 200, 750 MG/KG/D 5 D/WK FOR 18 MO (STUDY DURATION: 18 MO), Dose: 0, 50, 200, 750 MG/KG/D 5 D/WK FOR 18 MO (STUDY DURATION: 18 MO)): inactive; negative
- carcinogen call (Species: MOUSE, Strain/Sex: B6C3F1/MALE, Route: GAVAGE, Dose: 0, 50, 200, 750 MG/KG/D 5 D/WK FOR 18 MO (STUDY DURATION: 18 MO), Dose: 0, 50, 200, 750 MG/KG/D 5 D/WK FOR 18 MO (STUDY DURATION: 18 MO)): inactive; negative
- carcinogen call (Species: RAT, Strain/Sex: F344/FEMALE, Route: GAVAGE, Dose: 0, 50, 150, 500 MG/KG/D 5 D/WK FOR 24 MO (STUDY DURATION: 24 MO), Dose: 0, 50, 150, 500 MG/KG/D 5 D/WK FOR 24 MO (STUDY DURATION: 24 MO)): inactive; negative
- carcinogen call (Species: RAT, Strain/Sex: F344/MALE, Route: GAVAGE, Dose: 0, 50, 150, 500 MG/KG/D 5 D/WK FOR 24 MO (STUDY DURATION: 24 MO), Dose: 0, 50, 150, 500 MG/KG/D 5 D/WK FOR 24 MO (STUDY DURATION: 24 MO)): inactive; negative

Structure (SMILES): CC(O)COC(C)(C)C (stereo not drawn)
- carcinogen call (Species: MOUSE, Strain/Sex: B6C3F1/FEMALE, Route: INHALATION, Dose: 0, 75, 300, 1200 PPM 6 HR/D, 5 D/WK FOR 104 WKS, Dose: 0, 75, 300, 1200 PPM 6 HR/D, 5 D/WK FOR 104 WKS, Tumor Site: Type of Lesion: LIVER: HEPATOCELLULAR ADENOMA, CARCINOMA OR HEPATOBLASTOMA): active; positive
- carcinogen call (Species: MOUSE, Strain/Sex: B6C3F1/MALE, Route: INHALATION, Dose: 0, 75, 300, 1200 PPM 6 HR/D, 5 D/WK FOR 104 WKS, Dose: 0, 75, 300, 1200 PPM 6 HR/D, 5 D/WK FOR 104 WKS, Tumor Site: Type of Lesion: LIVER: HEPATOCELLULAR ADENOMA, CARCINOMA OR HEPATOBLASTOMA): active; positive
- carcinogen call (Species: RAT, Strain/Sex: F344/N/FEMALE, Route: INHALATION, Dose: 0, 75, 300, 1200 PPM 6 HR/D, 5 D/WK FOR 104 WKS, Dose: 0, 75, 300, 1200 PPM 6 HR/D, 5 D/WK FOR 104 WKS): inactive; negative
- carcinogen call (Species: RAT, Strain/Sex: F344/N/MALE, Route: INHALATION, Dose: 0, 75, 300, 1200 PPM 6 HR/D, 5 D/WK FOR 104 WKS, Dose: 0, 75, 300, 1200 PPM 6 HR/D, 5 D/WK FOR 104 WKS, Tumor Site: Type of Lesion: NO STATISTICALLY SIGNIFICANT INCREASE IN TUMORS BUT KIDNEY TUBULE TUMORS INCREASED SLIGHTLY): equivocal

Structure (SMILES): CC(C)NCC(O)c1ccc2ccccc2c1 (stereo not drawn)
- carcinogen call (Species: MOUSE, Route: ORAL, Tumor Site: Type of Lesion: THYROID GLAND): active; positive

Structure (SMILES): CCN=[N+]([O-])CC
- carcinogen call (Species: RAT, Route: ORAL, Tumor Site: Type of Lesion: LIVER: HEMANGIOENDOTHELIOMA): active; positive
- carcinogen call (Species: RAT, Route: SUBCUTANEOUS, Tumor Site: Type of Lesion: MAMMARY GLAND, BRAIN (OLFACTORY BULB): NEUROBLASTOMA, BRAIN: GLIOMA HEMATOPOIETIC SYSTEM (LEUKEMIA), Tumor Site: Type of Lesion: MAMMARY GLAND, BRAIN (OLFACTORY BULB): NEUROBLASTOMA, BRAIN: GLIOMA HEMATOPOIETIC SYSTEM (LEUKEMIA)): active; positive
- carcinogen call (Species: RAT, Strain/Sex: F344/MALE, Route: ORAL, Dose: 0, 14, 55 MG/ML IN A NEUTRAL DEIONIZED DRINKING WATER SOLUTION 5 D/WK FOR 30 WK (TOTAL DOSE 42; 132 MG) (STUDY DURATION:, Dose: 0, 14, 55 MG/ML IN A NEUTRAL DEIONIZED DRINKING WATER SOLUTION 5 D/WK FOR 30 WK (TOTAL DOSE 42; 132 MG) (STUDY DURATION:, Tumor Site: Type of Lesion: LIVER: CARCINOMA, HEMANGIOSARCOMA, ESOPHAGUS: TUMOR, NASAL CAVITY: SQUAMOUS CELL CARCINOMA, ADENOCARCINOMA, Tumor Site: Type of Lesion: LIVER: CARCINOMA, HEMANGIOSARCOMA, ESOPHAGUS: TUMOR, NASAL CAVITY: SQUAMOUS CELL CARCINOMA, ADENOCARCINOMA): active; positive

Structure (SMILES): CCN(CC)C(=O)N(CC)N=O
- carcinogen call (Species: HAMSTER, Strain/Sex: SYRIAN/MALE, Route: GAVAGE, Dose: 0, 45 MG/ML (0.2 ML OF A SOLUTION IN 50% ETHANOL) 1/WK FOR 25 WK (STUDY DURATION: LIFE SPAN), Tumor Site: Type of Lesion: SPLEEN: HEMANGIOSARCOMA, FORESTOMACH: SQUAMOUS CELL CARCINOMA OR PAPILLOMA): active; positive

Structure (SMILES): CC[C@H]1CCC[C@H](O[C@H]2CC[C@H](N(C)C)[C@@H](C)O2)[C@@H](C)C(=O)C2=C[C@@H]3[C@@H](C=C[C@@H]4C[C@@H](O[C@@H]5O[C@@H](C)[C@H](OC)[C@@H](OC)[C@H]5OC)C[C@@H]34)[C@@H]2CC(=O)O1
- carcinogen call (Species: MOUSE, Strain/Sex: CD-1/FEMALE, Route: ORAL, Dose: 0, 0.0025, 0.008, 0.024, 0.0008% IN DIET FOR 18 MO (STUDY DURATION: 18 MO), Dose: 0, 0.0025, 0.008, 0.024, 0.0008% IN DIET FOR 18 MO (STUDY DURATION: 18 MO)): inactive; negative
- carcinogen call (Species: MOUSE, Strain/Sex: CD-1/FEMALE, Route: ORAL, Dose: 0.0025, 0.008, 0.036 % IN DIET FOR 18 MO (STUDY DURATION: 18 MO), Dose: 0.0025, 0.008, 0.036 % IN DIET FOR 18 MO (STUDY DURATION: 18 MO)): inactive; negative
- carcinogen call (Species: MOUSE, Strain/Sex: CD-1/MALE, Route: ORAL, Dose: 0, 0.0008, 0.0025, 0.008, 0.024, 0.036% IN DIET FOR 18 MO (STUDY DURATION: 18 MO), Dose: 0, 0.0008, 0.0025, 0.008, 0.024, 0.036% IN DIET FOR 18 MO (STUDY DURATION: 18 MO)): inactive; negative
- carcinogen call (Species: MOUSE, Strain/Sex: CD-1/MALE, Route: ORAL, Dose: 0.0025, 0.008, 0.036 % IN DIET FOR 18 MO (STUDY DURATION: 18 MO), Dose: 0.0025, 0.008, 0.036 % IN DIET FOR 18 MO (STUDY DURATION: 18 MO)): inactive; negative
- carcinogen call (Species: RAT, Strain/Sex: F344/FEMALE, Route: ORAL, Dose: 0.005, 0.02, 0.05, 0.1% IN DIET FOR 24 MO (STUDY DURATION: 24 MO), Dose: 0.005, 0.02, 0.05, 0.1% IN DIET FOR 24 MO (STUDY DURATION: 24 MO)): inactive; negative
- carcinogen call (Species: RAT, Strain/Sex: F344/MALE, Route: ORAL, Dose: 0.005, 0.02, 0.05, 0.1 % IN DIET FOR 24 MO (STUDY DURATION: 24 MO), Dose: 0.005, 0.02, 0.05, 0.1 % IN DIET FOR 24 MO (STUDY DURATION: 24 MO)): inactive; negative

Structure (SMILES): C=CC(=O)NCO
- carcinogen call (Species: MOUSE, Strain/Sex: B6C3F1/FEMALE, Route: GAVAGE, Dose: 0, 25, 50 MG/KG IN DEIONIZED WATER 5 D/WK FOR 103 WK (STUDY DURATION: 105 WK), Dose: 0, 25, 50 MG/KG IN DEIONIZED WATER 5 D/WK FOR 103 WK (STUDY DURATION: 105 WK), Tumor Site: Type of Lesion: HARDERIAN GLAND: ADENOMA, ADENOMA OR CARCINOMA, LIVER: HEPATOCELLULAR ADENOMA, HEPATOCELLULAR ADENOMA OR CARCINOMA, LUNG, Tumor Site: Type of Lesion: HARDERIAN GLAND: ADENOMA, ADENOMA OR CARCINOMA, LIVER: HEPATOCELLULAR ADENOMA, HEPATOCELLULAR ADENOMA OR CARCINOMA, LUNG): active; positive
- carcinogen call (Species: MOUSE, Strain/Sex: B6C3F1/MALE, Route: GAVAGE, Dose: 0, 25, 50 MG/KG IN DEIONIZED WATER 5 D/WK FOR 103 WK (STUDY DURATION: 105 WK), Dose: 0, 25, 50 MG/KG IN DEIONIZED WATER 5 D/WK FOR 103 WK (STUDY DURATION: 105 WK), Tumor Site: Type of Lesion: HARDERIAN GLAND: ADENOMA, ADENOMA OR CARCINOMA, LIVER: HEPATOCELLULAR ADENOMA, HEPATOCELLULAR CARCINOMA, LUNG: ALVEOLAR/, Tumor Site: Type of Lesion: HARDERIAN GLAND: ADENOMA, ADENOMA OR CARCINOMA, LIVER: HEPATOCELLULAR ADENOMA, HEPATOCELLULAR CARCINOMA, LUNG: ALVEOLAR/): active; positive
- carcinogen call (Species: RAT, Strain/Sex: F344/FEMALE, Route: GAVAGE, Dose: 0, 6, 12 MG/KG IN DEIONIZED WATER 5 D/WK FOR 103 WK (STUDY DURATION: 105 WK), Dose: 0, 6, 12 MG/KG IN DEIONIZED WATER 5 D/WK FOR 103 WK (STUDY DURATION: 105 WK)): inactive; negative
- carcinogen call (Species: RAT, Strain/Sex: F344/MALE, Route: GAVAGE, Dose: 0, 6, 12 MG/KG IN DEIONIZED WATER 5 D/WK FOR 103 WK (STUDY DURATION: 105 WK), Dose: 0, 6, 12 MG/KG IN DEIONIZED WATER 5 D/WK FOR 103 WK (STUDY DURATION: 105 WK)): inactive; negative

— PubChem BioAssay AID1259411 (Chemical Carcinogenesis Research Information System (CCRIS), 2018)
